Assay results as given in PubChem BioAssay AID1259408 (Genetic Toxicology Data Bank (GENE-TOX), 2018).
Calls of active or inactive are those of the source. No rule for the calls is given here.

Test system: GENE-TOX genotoxicity assays, various organisms and cells
Test: GENE-TOX mutagenicity studies
Details: for call: Assay Type: In vivo carcinogenicity studies
[1] = Species/Cell Type: Salmonella typhimurium (one or more of the five standard strains: TA98, TA100, TA1535, TA1537, and TA1538), Assay Type: Histidine reverse gene mutation, Ames assay, Assay Code: SAL+, Evaluation Type: Evaluation A (Pre-1980)
[2] = Species/Cell Type: Bacillus subtilis (H17 vs M45), Assay Type: Rec-assay, spot test, DNA effects (bacterial DNA repair), Assay Code: REWT, Evaluation Type: Evaluation A (Pre-1980)
[3] = Species/Cell Type: Drosophila melanogaster, Assay Type: Sex-linked recessive lethal gene mutation, Assay Code: SRLT, Evaluation Type: Evaluation A (Pre-1980)
[4] = Species/Cell Type: Escherichia coli WP2 UVRA, Assay Type: Tryptophan reverse gene mutation, Assay Code: WPU-*, Activation: With metabolic activation, Evaluation Type: Evaluation A (Pre-1980)
[5] = Species/Cell Type: Escherichia coli polA (W3119 vs P3478), Assay Type: Rec-assay, DNA effects (bacterial DNA repair), Assay Code: RE1T, Evaluation Type: Evaluation A (Pre-1980)
[6] = Species/Cell Type: Human diploid fibroblasts, Assay Type: Unscheduled DNA synthesis (UDS) in vitro, DNA effects, Assay Code: UDH-, Evaluation Type: Evaluation A (Pre-1980)
[7] = Species/Cell Type: Saccharomyces cerevisiae, Assay Type: Mitotic recombination or gene conversion, Assay Code: YEH-, Evaluation Type: Evaluation A (Pre-1980)
[8] = Species/Cell Type: Nonhuman, Assay Type: Sister-chromatid exchange (SCE) in vitro, Assay Code: SC2+D, Dose Response: With dose response, Evaluation Type: Evaluation B (Post-1980)
[9] = Species/Cell Type: Salmonella typhimurium (one or more of the five standard strains: TA98, TA100, TA1535, TA1537, and TA1538), Assay Type: Histidine reverse gene mutation, Ames assay, Assay Code: SALT, Evaluation Type: Evaluation A (Pre-1980)
[10] = Species/Cell Type: Salmonella typhimurium (one or more of the five standard strains: TA98, TA100, TA1535, TA1537, and TA1538), Assay Type: Histidine reverse gene mutation, Ames assay, Assay Code: SAL-, Evaluation Type: Evaluation A (Pre-1980)
[11] = Species/Cell Type: Salmonella typhimurium (one or more of the five standard strains: TA98, TA100, TA1535, TA1537, and TA1538), Assay Type: Histidine reverse gene mutation, Ames assay, Assay Code: SAL+*, Activation: With metabolic activation, Evaluation Type: Evaluation A (Pre-1980)
[12] = Species/Cell Type: Nonhuman, Assay Code: CCGT, Evaluation Type: Evaluation A (Pre-1980)
[13] = Species/Cell Type: Nonhuman, Assay Code: CCG+, Evaluation Type: Evaluation A (Pre-1980)
[14] = Species/Cell Type: Rodents, Sex: Male, Assay Type: Dominant lethal test, Assay Code: DLT-, Evaluation Type: Evaluation A (Pre-1980)

O=[N+]([O-])c1ccc(Nc2ccc(N=C=S)cc2)cc1
mutagenic call (Species/Cell Type: Salmonella typhimurium, Assay Type: Forward and reverse gene mutation, body fluid assay, Assay Code: BFU+, Evaluation Type: Evaluation A (Pre-1980)): active; positive

C#CC(OC(=O)NC1CCCCC1)(c1ccccc1)c1ccc(C)c(C)c1 (configuration not stated)
mutagenic call (Species/Cell Type: Human diploid fibroblasts, Assay Type: Unscheduled DNA synthesis (UDS) in vitro, DNA effects, Assay Code: UDH+, Evaluation Type: Evaluation A (Pre-1980)): active; positive
mutagenic call [1]: active; positive

COP(=S)(OC)Oc1ccc(SC)c(C)c1
mutagenic call [2]: no conclusion
mutagenic call [3]: no conclusion
mutagenic call [4]: inactive; negative
mutagenic call [5]: no conclusion
mutagenic call [6]: inactive; negative
mutagenic call (Species/Cell Type: Human, Assay Type: Sister-chromatid exchange (SCE) in vitro, Assay Code: SC1T, Evaluation Type: Evaluation B (Post-1980)): no conclusion
mutagenic call (Species/Cell Type: Nonhuman, Assay Type: Sister-chromatid exchange (SCE) in vitro, Assay Code: SC2+D*, Activation: With metabolic activation, Dose Response: With dose response, Evaluation Type: Evaluation B (Post-1980)): active; positive
mutagenic call [7]: inactive; negative

FC1(F)C(F)(F)C(F)(F)C1(F)F
mutagenic call [3]: no conclusion

CN(C#N)N=O
mutagenic call (Species/Cell Type: Nonhuman, Assay Type: Chromosome aberrations in vitro, Assay Code: CY&+, Evaluation Type: Evaluation A (Pre-1980)): active; positive
mutagenic call [1]: active; positive
mutagenic call (Species/Cell Type: Syrian hamster embryo (SHE) cells, Assay Type: Cell transformation, clonal assay, Assay Code: CTC+, Evaluation Type: Evaluation A (Pre-1980)): active; positive

Nc1ncn([C@@H]2O[C@H](CO)[C@@H](O)[C@H]2O)c(=O)n1
mutagenic call (Species/Cell Type: Human lymphocytes, Assay Type: Sister-chromatid exchange (SCE) in vitro, Assay Code: SCL+, Evaluation Type: Evaluation B (Post-1980)): active; positive
mutagenic call (Species/Cell Type: Human, Assay Type: Sister-chromatid exchange (SCE) in vitro, Assay Code: SC1+, Evaluation Type: Evaluation B (Post-1980)): active; positive
mutagenic call (Species/Cell Type: Mouse (C3H/10T1/2) cells, Assay Type: Cell transformation, Assay Code: CTH+, Evaluation Type: Evaluation A (Pre-1980)): active; positive
call (Species/Cell Type: Nonhuman, Assay Code: CCG+L, Evaluation Type: Evaluation A (Pre-1980)): active; positive
mutagenic call [8]: active; positive

CC(=O)OCN(Cc1ccccc1)N=O
mutagenic call [9]: no conclusion

c1ccc(N=NNc2ccccc2)cc1
mutagenic call (Species/Cell Type: Allium cepa, Assay Type: Chromosome aberrations, Assay Code: ALC+, Evaluation Type: Evaluation A (Pre-1980)): active; positive

C[C@H]1CCC[C@@]2(C)CCCC[C@]12O
mutagenic call [10]: inactive; negative

O=S(=O)(O)c1cc(O)c2c(O)c(N=Nc3ccccc3)c(S(=O)(=O)O)cc2c1
mutagenic call [2]: no conclusion

COc1c(Cl)ccc2oc3cc4c(c(OC)c3c(=O)c12)[C@@H]1C=CO[C@@H]1O4
mutagenic call [11]: active; positive

Cc1ncc([N+](=O)[O-])n1C
mutagenic call [1]: active; positive

[Pb]
mutagenic call (Species/Cell Type: Human lymphocytes or leukocytes, Assay Type: Chromosome aberrations in vitro, Assay Code: CY7-, Evaluation Type: Evaluation A (Pre-1980)): inactive; negative
mutagenic call (Species/Cell Type: Human lymphocytes or leukocytes, Assay Type: Chromosome aberrations in vivo, Assay Code: CY8T, Evaluation Type: Evaluation A (Pre-1980)): no conclusion
mutagenic call (Species/Cell Type: Human, Sex: Male, Assay Type: Sperm morphology, Assay Code: SPH+, Evaluation Type: Evaluation A (Pre-1980)): active; positive
mutagenic call (Species/Cell Type: Nonhuman bone marrow, Assay Type: Chromosome aberrations, in vivo, Assay Code: CY#-, Evaluation Type: Evaluation A (Pre-1980)): inactive; negative
call [12]: no conclusion

C[C@H]1c2cccc(O)c2C(O)=C2C(=O)[C@]3(O)C(O)=C(C(N)=O)C(=O)[C@@H](N(C)C)[C@@H]3[C@@H](O)[C@@H]21
mutagenic call (Species/Cell Type: Human, Sex: Male, Assay Type: Sperm morphology, Assay Code: SPHT, Evaluation Type: Evaluation A (Pre-1980)): no conclusion

Cc1c2c(cc3c1ccc1ccccc13)C=C[C@@H](O)[C@@H]2O
mutagenic call (Species/Cell Type: Chinese hamster lung (V79) cells, Assay Type: Forward gene mutation at the HPRT or ouabain locus, Assay Code: V79+, Evaluation Type: Evaluation A (Pre-1980)): active; positive
mutagenic call (Species/Cell Type: Mouse prostate cells, Assay Type: Cell transformation, Assay Code: CTM+, Evaluation Type: Evaluation A (Pre-1980)): active; positive
call [12]: no conclusion
mutagenic call (Species/Cell Type: Nonhuman, Assay Type: Sister-chromatid exchange (SCE) in vitro, Assay Code: SC2+D, Dose Response: With dose response, Evaluation Type: Evaluation A (Pre-1980)): active; positive

COc1cc(-c2ccc(N)c(OC)c2)ccc1N
mutagenic call [5]: no conclusion
mutagenic call (Species/Cell Type: Human diploid fibroblasts, Assay Type: Unscheduled DNA synthesis (UDS) in vitro, DNA effects, Assay Code: UDH+*, Activation: With metabolic activation, Evaluation Type: Evaluation A (Pre-1980)): active; positive
call [13]: active; positive
mutagenic call [8]: active; positive
mutagenic call [11]: active; positive

COc1cc(NNc2ccccc2)ccc1N=O
mutagenic call [1]: active; positive

NC(Cc1ccc(N(CCCl)CCCl)cc1)C(=O)O (configuration not stated)
mutagenic call (Species/Cell Type: Drosophila melanogaster, Assay Type: Sex-linked recessive lethal gene mutation, Assay Code: SRL+, Evaluation Type: Evaluation A (Pre-1980)): active; positive
call [13]: active; positive

CCCCCC[C@@H](O)C1C2=C(CC([C@H](O)C3CCCC(=O)O3)CC3=C(C(=O)OC3=O)[C@@H]1O)C(=O)OC2=O (some centres not stated)
mutagenic call [14]: inactive; negative

CC(C)c1ccccc1OC(=O)N(C)N=O
mutagenic call (Species/Cell Type: Bacillus subtilis (H17 vs M45T), Assay Type: Rec-assay, spot test, DNA effects (bacterial DNA repair), Assay Code: REX+, Evaluation Type: Evaluation A (Pre-1980)): active; positive
mutagenic call (Species/Cell Type: Escherichia coli WP2, Assay Type: Tryptophan reverse gene mutation, Assay Code: WP2+, Evaluation Type: Evaluation A (Pre-1980)): active; positive

NC[C@H](O)CCl
mutagenic call (Species/Cell Type: Rat, Sex: Male, Assay Type: Sperm morphology, Assay Code: SPA+, Evaluation Type: Evaluation A (Pre-1980)): active; positive
mutagenic call [14]: inactive; negative

C=Cc1cccc(C)c1
mutagenic call (Species/Cell Type: Human lymphocytes, Assay Type: Sister-chromatid exchange (SCE) in vitro, Assay Code: SCL+D, Dose Response: With dose response, Evaluation Type: Evaluation B (Post-1980)): active; positive
mutagenic call (Species/Cell Type: Human, Assay Type: Sister-chromatid exchange (SCE) in vitro, Assay Code: SC1+D, Dose Response: With dose response, Evaluation Type: Evaluation B (Post-1980)): active; positive

O=C1c2c(O)ccc(Cl)c2C(=O)c2c(O)ccc(Cl)c21
mutagenic call [1]: active; positive

CO[C@@H]1CC(O[C@H]2CC[C@@]3(C=O)[C@](O)(CC[C@]4(C)[C@]3(C)CC[C@]3(C)[C@@H](C5=CC(=O)OC5)CC[C@@]43O)C2)O[C@H](C)C1O[C@H]1C[C@@H](CO)[C@H](O)[C@@H](O)[C@@H]1O (some centres not stated)
mutagenic call (Species/Cell Type: Nonhuman, Assay Type: Sister-chromatid exchange (SCE) in vitro, Assay Code: SC2-, Evaluation Type: Evaluation B (Post-1980)): inactive; negative

c1ncncn1
mutagenic call [3]: no conclusion

COc1ccc(C(c2ccc(OC)cc2)C(Cl)(Cl)Cl)cc1
mutagenic call [2]: no conclusion
mutagenic call (Species/Cell Type: Drosophila melanogaster, Assay Type: Sex-linked recessive lethal gene mutation, Assay Code: SRL-, Evaluation Type: Evaluation A (Pre-1980)): inactive; negative
mutagenic call [4]: inactive; negative
mutagenic call [5]: no conclusion
mutagenic call (Species/Cell Type: Fischer rat embryo (RLV/1706) cells, Assay Type: Cell transformation, viral enhanced, Assay Code: CTR-, Evaluation Type: Evaluation A (Pre-1980)): inactive; negative
mutagenic call [6]: inactive; negative
mutagenic call (Species/Cell Type: Mouse (BALB/c-3T3) cells, Assay Type: Cell transformation, Assay Code: CTB+D, Dose Response: With dose response, Evaluation Type: Evaluation A (Pre-1980)): active; positive
call (Species/Cell Type: Nonhuman, Assay Code: CCG-, Evaluation Type: Evaluation A (Pre-1980)): inactive; negative
mutagenic call [7]: inactive; negative
mutagenic call [10]: inactive; negative
mutagenic call (Species/Cell Type: Syrian hamster embryo (SHE) cells, Assay Type: Cell transformation, clonal assay, Assay Code: CTC-, Evaluation Type: Evaluation A (Pre-1980)): inactive; negative

FC(F)C(F)(F)C(F)(F)OC(F)(F)F
mutagenic call [9]: no conclusion

O=C(O)/C=C/c1ccc(O)c(O)c1
mutagenic call (Species/Cell Type: Mammalian polychromatic erythrocytes, Assay Type: Micronucleus test, chromosome aberrations, Assay Code: MNTT, Evaluation Type: Evaluation B (Post-1980)): no conclusion
